Tests used:
[1] = biological target: Aureobasidium subglaciale glucose oxidase (AsGOxII) (Aureobasidium subglaciale); assay: SEC-MALS; HPLC-SEC-MALS of the purified, native glycosylated enzyme; Superdex 200 10/300 GL, PBS pH 7.4 with 200 mM NaCl, 0.75 mL/min, 25 °C; 80 μg of protein loaded per run; oligomeric state judged against the mass of the deglycosylated subunit by SDS-PAGE
[2] = biological target: T1, TvGDHII (Trichoderma virens, UniProt G9N1C2); assay: spectrophotometric steady-state kinetics, reduction of […],4-benzoquinone ([…] nm); format: biochemical; settings: 0.5 mM 1,4-benzoquinone fixed, pH 6.5, 30 °C
T1 construct: gene TRIVIDRAFT_46709; monomer; ~65 kDa deglycosylated; non-covalent FAD

[3] = biological target: T2, RsGDHIII (Rhizoctonia solani, UniProt A0A0B7G104); assay: as above; format: biochemical; settings: 0.5 mM 1,4-benzoquinone fixed, pH 6.5, 30 °C
T2 construct: gene RSOLAG1IB_10481; monomer; non-covalent FAD
T2 sequence (A0A0B7G104 20-601): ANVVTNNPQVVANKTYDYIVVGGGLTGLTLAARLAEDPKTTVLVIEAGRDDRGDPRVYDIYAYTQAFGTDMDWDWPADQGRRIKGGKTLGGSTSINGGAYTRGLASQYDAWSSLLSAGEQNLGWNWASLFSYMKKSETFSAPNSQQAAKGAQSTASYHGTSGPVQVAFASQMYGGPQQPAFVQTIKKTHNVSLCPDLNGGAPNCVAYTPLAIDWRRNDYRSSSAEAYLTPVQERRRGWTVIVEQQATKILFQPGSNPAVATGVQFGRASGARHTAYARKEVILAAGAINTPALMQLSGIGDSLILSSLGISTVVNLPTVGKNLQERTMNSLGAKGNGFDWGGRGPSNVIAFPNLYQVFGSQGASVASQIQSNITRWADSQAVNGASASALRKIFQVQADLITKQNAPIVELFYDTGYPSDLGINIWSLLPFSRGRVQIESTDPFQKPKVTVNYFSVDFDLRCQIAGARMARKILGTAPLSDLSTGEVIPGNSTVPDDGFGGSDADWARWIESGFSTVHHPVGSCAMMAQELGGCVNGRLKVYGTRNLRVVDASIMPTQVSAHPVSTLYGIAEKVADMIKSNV

T1 sequence (G9N1C2 entry or part of it): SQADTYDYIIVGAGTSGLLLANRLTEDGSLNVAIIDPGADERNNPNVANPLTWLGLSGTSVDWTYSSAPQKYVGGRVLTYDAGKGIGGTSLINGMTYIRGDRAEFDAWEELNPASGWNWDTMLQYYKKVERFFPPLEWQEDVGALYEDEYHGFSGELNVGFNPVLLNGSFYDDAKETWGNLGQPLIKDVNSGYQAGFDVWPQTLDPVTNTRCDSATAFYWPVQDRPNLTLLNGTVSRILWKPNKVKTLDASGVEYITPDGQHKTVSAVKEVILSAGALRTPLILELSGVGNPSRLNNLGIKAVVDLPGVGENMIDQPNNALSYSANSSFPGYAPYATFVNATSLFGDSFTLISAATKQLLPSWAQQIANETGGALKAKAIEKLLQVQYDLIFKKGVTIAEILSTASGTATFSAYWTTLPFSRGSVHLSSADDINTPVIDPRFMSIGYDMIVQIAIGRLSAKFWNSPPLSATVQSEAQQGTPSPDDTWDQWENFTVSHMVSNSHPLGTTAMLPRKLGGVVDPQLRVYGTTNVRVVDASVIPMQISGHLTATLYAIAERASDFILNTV

Compound: Aureobasidium subglaciale glucose oxidase (AsGOxII) (enzyme)
- stoichiometry N [1]: 2

Compound: OC[C@H]1OC(O)[C@H](O)[C@@H](O)[C@H]1O (stereo partly drawn) [D-galactose]
- apparent Km [2]: 42.6 ± 2.4 mM

Compound: OC[C@H]1O[C@H](O[C@H]2[C@H](O)[C@@H](O)C(O)O[C@@H]2CO)[C@H](O)[C@@H](O)[C@@H]1O (stereo partly drawn) [maltose]
- apparent Km [3]: 159.6 ± 9.4 mM
